Paper PMC4822888, “Subtype-Selective Small Molecule Inhibitors Reveal a Fundamental Role for Nav1.7 in Nociceptor Electrogenesis, Axonal Conduction and Presynaptic Release” (PLoS ONE, 2016)
Values joined by “and” are separate entries in the source; they are usually repeats but may differ in a detail not shown here. Equal values may be shown once.

Legend:
[1] = tested on: Calcium channel L-type (verapamil site); experiment: Off target activity panel; format: binding; settings: 10 µM
PDE5 = PDE5 (Homo sapiens, UniProt O76074); experiment: Off target activity panel; format: biochemical; settings: read-out: Inhibition at test concentration (%)
Serotonin 5-HT1B = Serotonin 5-HT1B (Homo sapiens, UniProt P28222); experiment: Off target activity panel; format: binding; settings: read-out: Inhibition at test concentration (%)
GABAA channel = experiment: Off target activity panel; format: binding; settings: 10 µM
[2] = molecular target: Melanin-concentrating hormone receptor 1 (Homo sapiens, UniProt Q99705); experiment: Off target activity panel; format: binding; settings: read-out: Inhibition at test concentration (%)
[3] = tested on: human DRG neurons (hDRG neurons); experiment: Current clamp of action potentials in human DRG neurons; format: cell-based
Dopamine D1 receptor = Dopamine D1 receptor (Homo sapiens, UniProt P21728); experiment: Off target activity panel; format: binding; settings: read-out: Inhibition at test concentration (%)
Serotonin 5-HT7 = Serotonin 5-HT7 (Homo sapiens, UniProt P34969); experiment: Off target activity panel; format: binding; settings: read-out: Inhibition at test concentration (%)
Somatostatin receptor 4 = Somatostatin receptor 4 (Homo sapiens, UniProt P31391); experiment: Off target activity panel; format: binding; settings: read-out: Inhibition at test concentration (%)
PDE11 = PDE11 (Homo sapiens, UniProt Q9HCR9); experiment: Off target activity panel; format: biochemical; settings: read-out: Inhibition at test concentration (%)
[4] = molecular target: Adrenergic alpha 2B receptor (Homo sapiens, UniProt P18089); experiment: Off target activity panel; format: binding; settings: read-out: Inhibition at test concentration (%)
Muscarinic M3 receptor = Muscarinic M3 receptor (Homo sapiens, UniProt P20309); experiment: Off target activity panel; format: binding; settings: read-out: Inhibition at test concentration (%)
Sigma receptor = experiment: Off target activity panel; format: binding; settings: 10 µM
[5] = molecular target: Angiotensin converting enzyme (Homo sapiens, UniProt P12821); experiment: Off target activity panel; format: biochemical; settings: read-out: Inhibition at test concentration (%)
Acetylcholinesterase = Acetylcholinesterase (Homo sapiens, UniProt P22303); experiment: Off target activity panel; format: biochemical; settings: read-out: Inhibition at test concentration (%)
Abl kinase receptor = Abl kinase receptor (Homo sapiens, UniProt P00519); experiment: Off target activity panel; format: biochemical; settings: read-out: Inhibition at test concentration (%)
cynNav1.7 = cynNav1.7 (Macaca fascicularis, UniProt A0A2K5WIF4); experiment: cell-based; format: cell-based, cynomologus macaque
Serotonin 5-HT4 = Serotonin 5-HT4 (Homo sapiens, UniProt Q13639); experiment: Off target activity panel; format: binding; settings: read-out: Inhibition at test concentration (%)
PDE2A = PDE2A (Homo sapiens, UniProt O00408); experiment: Off target activity panel; format: biochemical; settings: read-out: Inhibition at test concentration (%)
Carbonic anhydrase II = Carbonic anhydrase II (Homo sapiens, UniProt P00918); experiment: Off target activity panel; format: biochemical; settings: read-out: Inhibition at test concentration (%)
KvLQT = KvLQT (Homo sapiens, UniProt P51787); experiment: Blockade of KvLQT potassium channels
[6] = molecular target: Beta 1 adrenergic receptor (Homo sapiens, UniProt P08588); experiment: Off target activity panel; format: binding; settings: read-out: Inhibition at test concentration (%)
[7] = molecular target: Serotonin 5-HT transporter (Homo sapiens, UniProt P31645); experiment: Off target activity panel; format: binding; settings: read-out: Inhibition at test concentration (%)
Cyclooxygenase 1 = Cyclooxygenase 1 (Homo sapiens, UniProt P23219); experiment: Off target activity panel; format: biochemical; settings: read-out: Inhibition at test concentration (%)
[8] = tested on: cynomolgus TRPV1 receptor; experiment: Blockade of cynomolgus TRPV1 receptor; settings: tested concentrations up to 10 μM
Kappa opioid receptor = Kappa opioid receptor (Homo sapiens, UniProt P41145); experiment: Off target panel, functional activity (agonist/antagonist); format: biochemical; settings: at 10 µM
Cyclooxegenase 2 = Cyclooxegenase 2 (Homo sapiens, UniProt P35354); experiment: Off target activity panel; format: biochemical
[9] = tested on: Adrenergic alpha 1 receptor; experiment: Off target activity panel; format: binding; settings: 10 µM
[10] = tested on: human DRG neurons (hDRG neurons); experiment: Voltage clamp of TTX-S current in human DRG neurons; format: cell-based
PDE6 = experiment: Off target activity panel; format: biochemical; settings: 10 µM
[11] = molecular target: Beta 2 adrenergic receptor (Homo sapiens, UniProt P07550); experiment: Off target activity panel; format: binding; settings: read-out: Inhibition at test concentration (%)
PPAR gamma = molecular target: T1, PPAR gamma (Homo sapiens, UniProt P37231); experiment: Off target activity panel; format: binding
T1 sequence (P37231 1-505): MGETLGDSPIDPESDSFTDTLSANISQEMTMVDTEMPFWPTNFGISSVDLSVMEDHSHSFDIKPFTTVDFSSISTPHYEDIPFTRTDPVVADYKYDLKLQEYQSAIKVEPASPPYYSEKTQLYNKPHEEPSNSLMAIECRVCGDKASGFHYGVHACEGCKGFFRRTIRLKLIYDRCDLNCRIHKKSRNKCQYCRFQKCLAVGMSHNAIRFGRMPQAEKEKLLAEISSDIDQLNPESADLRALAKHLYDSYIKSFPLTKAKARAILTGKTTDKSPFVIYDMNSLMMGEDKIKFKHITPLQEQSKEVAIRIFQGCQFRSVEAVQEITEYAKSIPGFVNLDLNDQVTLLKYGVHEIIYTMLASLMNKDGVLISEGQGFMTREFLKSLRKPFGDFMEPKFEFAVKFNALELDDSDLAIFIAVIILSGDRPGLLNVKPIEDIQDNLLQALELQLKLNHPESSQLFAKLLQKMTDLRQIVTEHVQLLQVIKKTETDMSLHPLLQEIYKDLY

PDE4 rolipram binding = experiment: Off target activity panel; settings: 10 µM
[12] = Off target activity panel; format: binding; settings: read-out: Inhibition at test concentration (%)
[13] = molecular target: Norepinephrine transporter (Homo sapiens, UniProt P23975); experiment: Off target activity panel; format: binding; settings: read-out: Inhibition at test concentration (%)
PDE3B = PDE3B (Homo sapiens, UniProt Q13370); experiment: Off target activity panel; format: biochemical; settings: read-out: Inhibition at test concentration (%)
Serotonin 5-HT6 = Serotonin 5-HT6 (Homo sapiens, UniProt P50406); experiment: Off target activity panel; format: binding; settings: read-out: Inhibition at test concentration (%)
[14] = 10 µM, read-out: Inhibition at test concentration (%)

In the case of `Nc1[nH]ncc1-c1cc(Cl)ccc1Oc1cc(F)c(S(=O)(=O)Nc2cscn2)cc1Cl` [PF-05089771, 4-[2-(5-amino-1H-pyrazol-4-yl)-4-chlorophenoxy]-5-chloro-2-fluoro-N-(1,3-thiazol-4-yl)benzenesulfonamide], the “Inhibition at test concentration (%)” value [1] is reported as -6%, the inhibition at 10 µM (PDE5) is reported as 7% and the inhibition at 10 µM (Serotonin 5-HT1B) is reported as 6%. The “Inhibition at test concentration (%)” value (GABAA channel) was 41%, the inhibition at 10 µM [2] was -7% and the “Neurons with action potential block” value ([3]; 30 nM) was 3 out of 7 and 3/7. The “Neurons with action potential failure” value ([3]; 100 nM) was 5 out of 8 and 5/8, the inhibition at 10 µM (Dopamine D1 receptor) was 0% and the inhibition at 10 µM (Serotonin 5-HT7) was -7%. It also gave an inhibition at 10 µM (Somatostatin receptor 4) of 5%, an inhibition at 10 µM (PDE11) of 6% and an inhibition at 10 µM [4] of 24%. The inhibition at 10 µM (Muscarinic M3 receptor) was 16%, the “Inhibition at test concentration (%)” value (Sigma receptor) was -8% and the inhibition at 10 µM [5] was -4%. It also gave an inhibition at 10 µM (Acetylcholinesterase) of 17%, an inhibition at 10 µM (Abl kinase receptor) of 9% and an IC50 (cynNav1.7) of 12 nM. The Slope (cynNav1.7; cynNav1.7) was 1.1, the inhibition at 10 µM (Serotonin 5-HT4) was -7% and the inhibition at 10 µM (PDE2A) was 9%. For the same compound, the inhibition at 10 µM (Carbonic anhydrase II) was 21%, the IC50 (KvLQT) was 10000 nM and the inhibition at 10 µM [6] was 12%. For the same compound, the inhibition at 10 µM [7] was 0%, the inhibition at 10 µM (Cyclooxygenase 1) was 18% and the “Blockade of cynomolgus TRPV1 receptor” value [8] was “No blockade”. The Functional activity (Kappa opioid receptor) was “no agonist or antagonist activity at 10 µM”, the inhibition at 10 µM (Cyclooxegenase 2; [14]) was 72% and the Ki (Cyclooxegenase 2; Cyclooxegenase 2) was 5400 nM. For the same compound, the “Inhibition at test concentration (%)” value [9] was -5%, the “Block of TTX-S current” value ([10]; 30 nM, in presence of A-803467) was 75.5 ± 10.5% and the “Block of TTX-S current” value ([10]; 100 nM) was “complete block”. The IC50 ([10]; DRG neuron, read-out: IC50 for TTX-S current block) was 8.4 ± 1.2 nM, the “Inhibition at test concentration (%)” value (PDE6) was 7% and the inhibition at 10 µM [11] was 4%. For the same compound, the inhibition at 10 µM (PPAR gamma; [14]) was 60%, the Ki (PPAR gamma; PPAR gamma) was 2800 nM and the “Inhibition at test concentration (%)” value (PDE4 rolipram binding) was 10%. For the same compound, the inhibition at 10 µM [12] was 64%, the inhibition at 10 µM [13] was 27% and the inhibition at 10 µM (PDE3B) was 4%. For the same compound, the inhibition at 10 µM (Serotonin 5-HT6) was 2%.
